Like-named read-outs stand apart in the source and are kept apart here.
What was measured:
[1] = molecular target: T1, kappa opioid receptor (Homo sapiens, UniProt P41145); assay: Invitro KOR agonistic activity, cAMP based functional assay; assay type: cell-based
T1 construct: grown in complete Ham's F-12 medium

[2] = molecular target: T2, kappa opioid receptor (Mus musculus, UniProt P33534); assay: Ex-vivo KOR agonistic activity, electrically stimulated mouse vas deferens (MVD) model
T2 construct: from tissue; host or cells: mouse vas deferens (male Swiss Albino mice)
Description: a) Ex-Vivo KOR Agonistic Activity Testing, Using Electrically Stimulated Mouse Vas Deferens (MVD) Model:
Ex-vivo, the kappa opioid receptor agonistic activity of test compounds were tested on the electrically stimulated mouse vas deferens (MVD) preparations (Henderson et al., Br. J. Pharmacol., 46, 764-766, 1972; Portoghese et al., Life Sci. 36, 801-805, 1985) and IC50 were determined. In general, vas deferentia were taken from male Swiss Albino mice (30-40 g) and suspended in 8 ml organ baths, at 31° C., containing modified Krebs-Henseleit solution, without magnesium sulphate. Each vas deferens was equilibrated for 45 min at 2.6 mN tension and then stimulated at supramaximal voltage with five 1 ms pulses, at a frequency of 0.1 Hz. Concentration-response curves were determined by cumulative dosing. Inhibitory Concentration, 50% (IC50) values were determined by Sigmoidal dose-response (variable slope) equation, using Prizm v 6.01. The kappa opioid receptor specificity was determined by rightward shift in concentration-response curves in presence of 1 nM norbinaltorphimine (norBNI), a selective kappa opioid receptor antagonist.

T1 sequence (P41145 whole entry): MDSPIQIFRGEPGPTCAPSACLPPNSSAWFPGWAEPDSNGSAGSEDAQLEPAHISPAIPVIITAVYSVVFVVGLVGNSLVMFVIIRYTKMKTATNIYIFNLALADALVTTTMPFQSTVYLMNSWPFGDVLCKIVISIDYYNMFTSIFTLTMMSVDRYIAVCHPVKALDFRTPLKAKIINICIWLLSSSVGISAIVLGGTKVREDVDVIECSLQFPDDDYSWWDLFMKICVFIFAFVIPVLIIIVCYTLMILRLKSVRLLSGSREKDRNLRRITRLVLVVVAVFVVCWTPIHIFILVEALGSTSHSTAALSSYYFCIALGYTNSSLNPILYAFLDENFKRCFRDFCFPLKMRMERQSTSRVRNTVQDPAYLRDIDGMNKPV
T2 sequence (P33534 whole entry): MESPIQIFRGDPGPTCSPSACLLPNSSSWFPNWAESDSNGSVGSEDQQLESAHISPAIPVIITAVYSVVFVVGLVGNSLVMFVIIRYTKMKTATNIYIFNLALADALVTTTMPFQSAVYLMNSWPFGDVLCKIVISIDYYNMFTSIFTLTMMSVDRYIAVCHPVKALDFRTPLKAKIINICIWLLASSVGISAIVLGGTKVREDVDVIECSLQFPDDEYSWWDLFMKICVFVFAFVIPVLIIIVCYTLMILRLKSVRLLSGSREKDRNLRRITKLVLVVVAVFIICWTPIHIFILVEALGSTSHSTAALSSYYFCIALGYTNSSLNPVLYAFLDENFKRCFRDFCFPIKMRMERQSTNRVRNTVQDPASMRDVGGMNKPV

SMILES	EC50 [1] [nM]	IC50 [2] [nM]	IC50 ([2]; electrically stimulated mouse vas deferens preparation, cumulative dosing, read-out: Ex-vivo IC50) [nM]
CN(C(=O)COc1ccc2ccccc2n1)[C@H](CN1CC[C@H](O)C1)c1ccccc1 [Compound 1, N-((S)-2-((S)-3-hydroxypyrrolidin-1-yl)-1-phenylethyl)-N-methyl-2-(quinolin-2-yloxy)acetamide]	0.022	3.5	
CN(C(=O)COc1ccc2cc(NS(C)(=O)=O)ccc2n1)[C@H](CN1CC[C@H](O)C1)c1ccccc1 [Compound 2, N-((S)-2-((S)-3-hydroxypyrrolidin-1-yl)-1-phenylethyl)-N-methyl-2-((6-methylsulfonamido)quinolin-2-yloxy)acetamide]	4.93	2590	
CN(C(=O)COc1cc(NS(C)(=O)=O)c2ccccc2n1)[C@H](CN1CC[C@H](O)C1)c1ccccc1 [Compound 3, N-((S)-2-((S)-3-hydroxypyrrolidin-1-yl)-1-phenylethyl)-N-methyl-2-((4-methylsulfonamido)quinolin-2-yloxy)acetamide]	0.035	414	
CN(C(=O)COc1ccnc2ccc(NS(C)(=O)=O)cc12)[C@H](CN1CC[C@H](O)C1)c1ccccc1 [Compound 4, N-((S)-2-((S)-3-hydroxypyrrolidin-1-yl)-1-phenylethyl)-N-methyl-2-((6-methylsulfonamido)quinolin-4-yloxy)acetamide]	1.21	1500	
CN(C(=O)COc1ccc(NS(C)(=O)=O)c2ncccc12)[C@H](CN1CC[C@H](O)C1)c1ccccc1 [Compound 5, N-((S)-2-((S)-3-hydroxypyrrolidin-1-yl)-1-phenylethyl)-N-methyl-2-((8-methylsulfonamido)quinolin-5-yloxy)acetamide]	0.013	5.6	
CN(C(=O)COc1ccc([N+](=O)[O-])c2cccnc12)[C@H](CN1CC[C@H](O)C1)c1ccccc1 [Compound 7, N-((S)-2-((S)-3-hydroxypyrrolidin-1-yl)-1-phenylethyl)-N-methyl-2-((5-nitroquinolin-8-yl)oxy)acetamide]	0.015	0.84	
CN(C(=O)COc1ccc([N+](=O)[O-])c2c1NCCC2)[C@H](CN1CC[C@H](O)C1)c1ccccc1 [Compound 8, N-((S)-2-((S)-3-hydroxypyrrolidin-1-yl)-1-phenylethyl)-N-methyl-2-((5-nitroquinolin-1,2,3,4-tetrahydroquinolin-8-yl)oxy)acetamide]	0.018	6.2	
CN(C(=O)COc1nccc2ccccc12)[C@H](CN1CC[C@H](O)C1)c1ccccc1 [Compound 9, N-((S)-2-((S)-3-hydroxypyrrolidin-1-yl)-1-phenylethyl)-2-(isoquinolin-1-yloxy)-N-methylacetamide]	0.012	13	
CN(C(=O)COc1ncc(NS(C)(=O)=O)c2ccccc12)[C@H](CN1CC[C@H](O)C1)c1ccccc1 [Compound 10, N-((S)-2-((S)-3-hydroxypyrrolidin-1-yl)-1-phenylethyl)-N-methyl-2-((4-methylsulfonamido)isoquinolin-1-yloxy)acetamide]	0.089	54	
CN(C(=O)COc1cccc2c1NCCC2)[C@H](CN1CC[C@H](O)C1)c1ccccc1 [Compound 11, N-((S)-2-((S)-3-hydroxypyrrolidin-1-yl)-1-phenylethyl)-N-methyl-2-(1,2,3,4-tetrahydroquinolin-8-yloxy)acetamide]	0.004	1.6	
CN(C(=O)COc1cccc2c1N(S(C)(=O)=O)CCC2)[C@H](CN1CC[C@H](O)C1)c1ccccc1 [Compound 12, N-((S)-2-((S)-3-hydroxypyrrolidin-1-yl)-1-phenylethyl)-N-methyl-2-((1-(methylsulfonyl)-1,2,3,4-tetrahydroquinolin-8-yl)oxy)acetamide]	0.005	2	
CN1CCCc2cccc(OCC(=O)N(C)[C@H](CN3CC[C@H](O)C3)c3ccccc3)c21 [Compound 13, N-((S)-2-((S)-3-hydroxypyrrolidin-1-yl)-1-phenylethyl)-N-methyl-2-((1-methyl-1,2,3,4-tetrahydroquinolin-8-yl)oxy)acetamide]	0.91	125	
CN(C(=O)COc1ccc(NS(C)(=O)=O)c2c1NCCC2)[C@H](CN1CC[C@H](O)C1)c1ccccc1 [Compound 14, N-((S)-2-((S)-3-hydroxypyrrolidin-1-yl)-1-phenylethyl)-N-methyl-2-((5-(methylsulfonamido)-1,2,3,4-tetrahydroquinolin-8-yl)oxy)acetamide]	0.012	5.4	
CN(C(=O)COc1ccc2occc2c1)[C@H](CN1CC[C@H](O)C1)c1ccccc1 [Compound 16]	0.04	4	
CN(C(=O)COc1ccc2ccoc2c1)[C@H](CN1CC[C@H](O)C1)c1ccccc1 [Compound 17, 2-(benzofuran-6-yloxy)-N-((S)-2-((S)-3-hydroxypyrrolidin-1-yl)-1-phenylethyl)-N-methylacetamide]	0.012	7	
CN(C(=O)COc1ccc2c(c1)OCC2)[C@H](CN1CC[C@H](O)C1)c1ccccc1 [Compound 18, 2-((2,3-dihydrobenzofuran-6-yl)oxy)-N-((S)-2-((S)-3-hydroxypyrrolidin-1-yl)-1-phenylethyl)-N-methylacetamide]	0.07	8.2	
CN(C(=O)COc1ccc2ncccc2c1)[C@H](CN1CC[C@H](O)C1)c1ccccc1 [Compound 19, N-((S)-2-((S)-3-hydroxypyrrolidin-1-yl)-1-phenylethyl)-N-methyl-2-(quinolin-6-yloxy)acetamide]	1.31	135	
CN(C(=O)COc1ccc2c(c1)CCCN2)[C@H](CN1CC[C@H](O)C1)c1ccccc1 [Compound 21, N-((S)-2-((S)-3-hydroxypyrrolidin-1-yl)-1-phenylethyl)-N-methyl-2-((1,2,3,4-tetrahydroquinolin-6-yl)oxy)acetamide]	1.23	570	
CNS(=O)(=O)Nc1ccc(OCC(=O)N(C)[C@H](CN2CC[C@H](O)C2)c2ccccc2)c2cccnc12 [Compound 23, N-((S)-2-((S)-3-hydroxypyrrolidin-1-yl)-1-phenylethyl)-N-methyl-2-((8-((N-methylsulfamoyl)amino)quinolin-5-yl)oxy)-acetamide]	0.017	8.4	
CN(C(=O)COc1ccc(NS(=O)(=O)N(C)C)c2ncccc12)[C@H](CN1CC[C@H](O)C1)c1ccccc1 [Compound 24, 2-((8-((N,N-dimethylsulfamoyl)amino)quinolin-5-yl)oxy)-N-((S)-2-((S)-3-hydroxypyrrolidin-1-yl)-1-phenylethyl)-N-methyl-acetamide]	0.055	5	
CCN(CC)S(=O)(=O)Nc1ccc(OCC(=O)N(C)[C@H](CN2CC[C@H](O)C2)c2ccccc2)c2cccnc12 [Compound 25, 2-((8-((N,N-diethylsulfamoyl)amino)quinolin-5-yl)oxy)-N-((S)-2-((S)-3-hydroxypyrrolidin-1-yl)-1-phenylethyl)-N-methyl-acetamide]	0.003	8.1	
CN(C(=O)COc1ccc(NS(=O)(=O)CCl)c2ncccc12)[C@H](CN1CC[C@H](O)C1)c1ccccc1 [Compound 26]	0.012	29	
CN(C(=O)COc1ccc(NS(C)(=O)=O)c2nccnc12)[C@H](CN1CC[C@H](O)C1)c1ccccc1 [Compound 27, N-((S)-2-((S)-3-hydroxypyrrolidin-1-yl-)-1-phenylethyl)-N-methyl-2-((8-(methylsulfonamido)quinoxain-5-yl)oxy)acetamide]	2.11	169	
CN(C(=O)COc1ncc2ccc(Br)cc2n1)[C@H](CN1CC[C@H](O)C1)c1ccccc1 [Compound 28, 2-((7-bromoquinazolin-2-yl)oxy)-N-((S)-2-((S)-3-hydroxypyrrolidin-1-yl)-1-phenylethyl)-N-methylacetamide]	1.42	1490	
CN(C(=O)COc1cccc2c1NCC2)[C@H](CN1CC[C@H](O)C1)c1ccccc1 [Compound 29, N-((S)-2-((S)-3-hydroxypyrrolidin-1-yl-)-1-phenylethyl)-2-(indolin-7-yloxy)-N-methylacetamide]	0.11	147	
CN(C(=O)COc1ccc2c3c1CCCN3S(=O)(=O)N2)[C@H](CN1CC[C@H](O)C1)c1ccccc1 [Compound 30]	900		9400
CC(=O)N1CCCc2c(OCC(=O)N(C)[C@H](CN3CC[C@H](O)C3)c3ccccc3)ccc(NS(C)(=O)=O)c21 [Compound 31, 2-((l-acetyl-8-(methylsulfonamido)-1,2,3,4-tetrahydroquinolin-5-yl)oxy)-N-((S)-2-((S)-3-hydroxypyrrolidin-1-yl)-1-phenylethyl)-N-methylacetamide]	0.51	118	
CN(C(=O)COc1ccc(NC(=O)CN)c2ncccc12)[C@H](CN1CC[C@H](O)C1)c1ccccc1 [Compound 33, 2-((8-(2-aminoacetamido)quinolin-5-yl)oxy)-N-((S)-2-((S)-3-hydroxypyrrolidin-1-yl)-1-phenylethyl)-N-methylacetamide]	0.006	8.4	
CN(C(=O)COc1ccc(NC(=O)CO)c2ncccc12)[C@H](CN1CC[C@H](O)C1)c1ccccc1 [Compound 34, 2-((8-(2-hydroxyacetamido)quinolin-5-yl)oxy)-N-((S)-2-((S)-3-hydroxypyrrolidin-1-yl)-1-phenylethyl)-N-methylacetamide]	0.49	258	
